From ChEMBL document CHEMBL1130863, “N3-methyl-mafosfamide as a chemically stable, alternative prodrug of mafosfamide” (1998)

What was measured:
L1210 = assay: Compound was evaluated against L1210 leukemia in mice expressed as increase of life span; Compound was active.; type: functional, Mus musculus
NIH3T3 = assay: In vitro cytotoxicity was evaluated in mouse embryo BALB/c 3T3 cells; type: functional; conditions: read-out: LC50 (the source's name)

| Compound | ILS (L1210) | CC50 (NIH3T3) |
| --- | --- | --- |
| CN1C(SCCS(=O)(=O)O)CCOP1(=O)N(CCCl)CCCl (stereo not drawn) | >29% | 3.6 µM |
| O=P1(N(CCCl)CCCl)NCCCO1 (stereo not drawn) [CYCLOPHOSPHAMIDE ANHYDROUS] |  | 37.6 µM |
